Each molecule was assayed against T1, hSortilin (Homo sapiens, UniProt Q99523) (assay: Neurotensin (NTS) scintillation proximity assay (SPA): displacement of 3H-neurotensin binding to hSortilin). Details: 150 nM 6his-Sortilin, 5 nM [3H]-Neurotensin; average of at least 4 determinations.
T1 sequence (Q99523 78-831): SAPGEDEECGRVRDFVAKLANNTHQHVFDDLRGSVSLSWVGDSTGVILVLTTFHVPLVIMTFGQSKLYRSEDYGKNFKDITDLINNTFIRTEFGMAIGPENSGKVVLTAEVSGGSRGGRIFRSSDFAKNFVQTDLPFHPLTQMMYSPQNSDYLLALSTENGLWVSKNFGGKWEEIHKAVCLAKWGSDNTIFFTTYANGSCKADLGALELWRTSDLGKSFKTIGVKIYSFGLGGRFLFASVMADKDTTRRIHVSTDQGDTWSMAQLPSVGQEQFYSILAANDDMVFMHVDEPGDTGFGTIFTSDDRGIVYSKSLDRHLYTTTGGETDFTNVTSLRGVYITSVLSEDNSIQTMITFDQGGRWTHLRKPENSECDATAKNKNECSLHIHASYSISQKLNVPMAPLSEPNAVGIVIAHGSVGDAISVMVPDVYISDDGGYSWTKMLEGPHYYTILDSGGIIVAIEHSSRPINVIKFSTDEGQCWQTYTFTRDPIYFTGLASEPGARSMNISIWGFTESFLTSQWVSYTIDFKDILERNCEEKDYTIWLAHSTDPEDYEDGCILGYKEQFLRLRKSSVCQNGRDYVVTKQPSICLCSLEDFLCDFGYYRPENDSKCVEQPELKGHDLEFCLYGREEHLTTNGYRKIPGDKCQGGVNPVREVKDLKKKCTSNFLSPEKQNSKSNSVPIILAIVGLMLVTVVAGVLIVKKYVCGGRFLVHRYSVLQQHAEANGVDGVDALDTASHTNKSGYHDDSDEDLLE

Row | IC50 [nM] | SMILES
1 | 710 | Cc1cccc(NC(=O)c2ccc(Br)cc2C(=O)O)n1 [Example 1, 5-bromo-2-[(6-methylpyridin-2-yl)carbamoyl]benzoic acid]
2 | 12000 | Cc1cccc(NC(=O)c2cc(Br)ccc2C(=O)O)n1 [Example 2, 4-bromo-2-[(6-methylpyridin-2-yl)carbamoyl]benzoic acid]
3 | 1700 | Cc1cccc(NC(=O)c2ccc([N+](=O)[O-])cc2C(=O)O)n1 [Example 9, 2-[(6-methylpyridin-2-yl)carbamoyl]-5-nitrobenzoic acid]
4 | 5200 | Cc1cccc(NC(=O)c2ccc(Br)cc2C(=O)O)c1 [Example 20, 5-bromo-2-[(3-methylphenyl)carbamoyl]benzoic acid]
5 | 100 | O=C(O)c1cc(C(F)(F)F)ccc1C(=O)Nc1ccc2c(n1)CCCC2 [Example 30, 2-[(5,6,7,8-tetrahydroquinolin-2-yl)carbamoyl]-5-(trifluoromethyl)benzoic acid]

Same assay, conditions: read-out: % inhibition at 50 μM; NTS SPA, compound at 50 μM (footnote *)

Row | inhibition at 50 µM [%] | SMILES
6 | 15 | Cc1cccc(NC(=O)c2ccccc2C(=O)O)n1 [Example 3, 2-[(6-methylpyridin-2-yl)carbamoyl]benzoic acid]
7 | 5 | Cc1cccc(NC(=O)c2cccc(C)c2C(=O)O)n1 [Example 4, 2-methyl-6-[(6-methylpyridin-2-yl)carbamoyl]benzoic acid]
8 | 2 | Cc1cccc(NC(=O)c2ccc(-c3ccccc3)cc2C(=O)O)n1 [Example 10, 4-[(6-methylpyridin-2-yl)carbamoyl]-[1,1′-biphenyl]-3-carboxylic acid]
9 | 69 | Cc1cccc(NC(=O)c2cc(Cl)ccc2C(=O)O)n1 [Example 11, 4-chloro-2-[(6-methylpyridin-2-yl)carbamoyl]benzoic acid]
10 | 57 | Cc1ccc(C(=O)O)c(C(=O)Nc2cccc(C)n2)c1 [Example 12, 4-methyl-2-[(6-methylpyridin-2-yl)carbamoyl]benzoic acid]
11 | 43 | Cc1cccc(NC(=O)c2c(C)cccc2C(=O)O)n1 [Example 16, 3-methyl-2-[(6-methylpyridin-2-yl)carbamoyl]benzoic acid]
12 | 30 | CCC(C)NC(=O)c1ccc(Br)cc1C(=O)O (stereo not drawn) [Example 17, 5-bromo-2-[(butan-2-yl)carbamoyl]benzoic acid]
13 | 35 | CC(C)NC(=O)c1ccc(Br)cc1C(=O)O [Example 18, 5-bromo-2-[(propan-2-yl)carbamoyl]benzoic acid]
14 | 69 | O=C(O)c1cc(Br)ccc1C(=O)Nc1ccccc1 [Example 19, 5-bromo-2-(phenylcarbamoyl)benzoic acid]
15 | 64 | Cc1cccnc1NC(=O)c1ccc(Br)cc1C(=O)O [Example 24, 5-bromo-2-[(3-methylpyridin-2-yl)carbamoyl]benzoic acid]
16 | 70 | Cc1ccc(NC(=O)c2ccc(Br)cc2C(=O)O)cn1 [Example 25, 5-bromo-2-[(6-methylpyridin-3-yl)carbamoyl]benzoic acid]

These molecules were tested on light sensitive cells of the retina in mice (assay: Diabetic mouse model: flash electroretinography (fERG) before and 8 weeks after STZ induction of diabetes). Details: intravitreal 2 μl of a 1 μg/μl solution, versus vehicle control group.
Format: in vivo
Experimental: Flash electroretinography (fERG) was used to measure the electrical response of the light sensitive cells of the retina in mice both prior to streptozocin (STZ) induction of diabetes (baseline) and 8 weeks after induction. Mice were exposed to increasing intensities of light flashes and the resulting electrical responses, measured in amplitude, were recorded. The skilled person will recognise that a cell with a higher measured amplitude is indicative of a healthy cell whilst cells with lower amplitudes is indicative of a damaged cell which is no longer functioning optimally. In the experimental group, the mice were administered with a polyclonal anti-sortilin antibody (2 ul of a 1 μg/μl solution in Dulbecco's Phosphate buffered saline) by intravitrial administration whereas in the control group the mice were administered with the vehicle only (Dulbecco's Phosphate buffered saline). All other variables, such as food intake, diet, exercise levels and exposure to environmental enrichment were kept the same between the two groups.

Row | SMILES | reduction in the fERG response (a wave and b wave) 8 weeks after induction compared to the baseline
17 | Cc1cccc(NC(=O)c2ccc(C(F)(F)F)cc2C(=O)O)n1 [Example 8, 2-[(6-methylpyridin-2-yl)carbamoyl]-5-(trifluoromethyl)benzoic acid] | smaller for the experimental group compared to the control group

Same assay, conditions: intravitreal, fERG 8 weeks after induction

Row | SMILES | protective effect on retinal cells compared with the polyclonal antibody of the first study
18 | Cc1cccc(NC(=O)c2ccc(C(F)(F)F)cc2C(=O)O)n1 [Example 8, 2-[(6-methylpyridin-2-yl)carbamoyl]-5-(trifluoromethyl)benzoic acid] | greater than that of the polyclonal antibody
